# Measured values published in patent publication US4654348A, “Pyrazolo[4,3-d]pyrimidine derivative, process for its production, antihyperlipidemic agent containing it, its intermediate, and process for the production of the intermediate” (Nissan Chemical Industries Ltd., priority 1984, dated 1987).
# What was measured:
# [1] = in words; cited from earlier work
# [2] = Test 2: Acute toxicity (mortality after seven days); format: in vivo; conditions: mouse, in vivo, po, 8000 mg/kg p.o., male ddY mice
# Procedure: The test compounds suspended in 0.5% CMC-Na were administered p.o. to male ddY mice. The acute toxicity was determined based on the mortality after seven days. In respect of the compounds of Examples 1, 9, 10 and 11 of the present invention, the mortality was 0% even at a dose of as high as 8000 mg/kg by oral administration.
# [3] = test system: emulsion-induced hyperlipidemic rats; assay: Test 1: antihyperlipidemic activity in emulsion-induced hyperlipidemic rats (serum Chol, HDL-Chol, liver weight); format: in vivo, male S.D. rats; conditions: 3 days, vs control; for change in vivo at 300 mg/kg / inhibition in vivo at 300 mg/kg: Rattus norvegicus, po, 72 h, 300 mg/kg/day via stomach tube; for change in vivo at 300 mg/kg: read-out: Increase rate of serum HDL-Chol; for inhibition in vivo at 300 mg/kg: read-out: Reduction rate of serum Chol.; for Degree of hepatomegaly (change rate of the liver weight): liver weight per 100 g body weight, 300 mg/kg/day
# Procedure: The antihyperlipidemic activity in emulsion-induced hyperlipidemic rats:
# Male S.D. rats weighing 80-90 g (4 weeks old) were used. They were divided into groups of 5 to 6 rats each. The test compounds suspended in 0.5% CMC-Na(carboxymethyl cellulose sodium salt) were given to the rats in a daily dose of 4 ml/kg (i.e. 300 mg/kg of the test compounds) via stomach tube every 10:00 a.m. After 30 min., lipids emulsion having the following composition was orally given to the rats in an amount of 2.5 ml per rat.
# Cholic acid sodium salt 10.0 g
# During the experimental period of 3 days, the rats were fed on a standard commercial diet and water ad libitum. […] The total cholesterol and HDL cholesterol were measured.
# The weight of the liver was measured. To the control group, only the aqueous CMC-Na solution and the lipids emulsion were given.
# The fractionation of lipoproteins was conducted by a dextran sulfate-MgCl2 precipitation method.
# Cholesterol in serum was measured by means of a cholesterol measuring kit (Cholesterol C-Test Wako, manufactured by Wako Junyaku Co., Ltd.), and cholesterol in HDL was measured by means of NC Hi-Set, manufactured by Nippon Chemiphar Co., Ltd.
# Further, the reduction rate of Chol was calculated by the following equation. [formula] where A is the amount of serum Chol (mg/dl) of the control group, and B is the amount of serum Chol (mg/dl) of the group to which the therapeutic agent was administered.
# Likewise, the increase rate of HDL-Chol was calculated by the following equation. [formula] where C is the amount of serum HDL-Chol (mg/dl) of the control group, and D is the amount of serum HDL-Chol (mg/dl) of the group to which the therapeutic agent was administered.
# The degree of hepatomegaly (i.e. the change rate of the liver weight) was calculated by the following equation. [formula] where E is the liver weight (g) per 100 g of the body weight of the control group, and F is the liver weight (g) per 100 g of the body weight of the group to which the therapeutic agent was administered.
Compound,inhibition in vivo at 300 mg/kg [3],also measured
O=C(O)c1cccnc1 [nicotinic acid],,subsidiary ill effects reported [1]: flashing or gastroenteric troubles
"CCCCCCCCCCCCCCCCOc1c2ncnc(SCC(=O)OCC)c2nn1C [Example 1, 2-Methyl-3-n-hexadecyloxy-7-ethoxycarbonylmethylthio-pyrazolo[4,3-d]pyrimidine]",58%,mortality at 168 h [2]: 0%; change in vivo at 300 mg/kg [3]: 42%; Degree of hepatomegaly (change rate of the liver weight) [3]: +8%
"CCCCCCCC/C=C\CCCCCCCCOc1c2ncnc(SCC(=O)OCC)c2nn1C [Example 9, 2-Methyl-3-oleyloxy-7-ethoxycarbonylmethylthio-pyrazolo[4,3-d]pyrimidine]",66%,mortality at 168 h [2]: 0%; change in vivo at 300 mg/kg [3]: 55%; Degree of hepatomegaly (change rate of the liver weight) [3]: +5%
"CCCCCCCC/C=C/CCCCCCCCOc1c2ncnc(SCC(=O)OCC)c2nn1C [Example 70, 2-Methyl-3-elaidyloxy-7-ethoxycarbonylmethylthio-pyrazolo[4,3-d]pyrimidine]",63%,
"CCOC(=O)CSc1ncnc2c(OC3CCC(C)CC3)n(C)nc12 (stereo not drawn) [Example 35, 2-Methyl-3-(4-methylcyclohexyloxy)-7-ethoxycarbonylmethylthio-pyrazolo[4,3-d]pyrimidine]",13%,
"CCCCCCCCCCCCCCCCOc1c2ncnc(SCCCC(=O)OCC)c2nn1C [Example 17, 2-Methyl-3-n-hexadecyloxy-7-(3-ethoxycarbonylpropylthio)-pyrazolo[4,3-d]pyrimidine]",49%,Degree of hepatomegaly (change rate of the liver weight) [3]: +5%
"CCOC(=O)CSc1ncnc2c(OCCOCc3ccc(C(C)(C)C)cc3)n(C)nc12 [Example 38, 2-Methyl-3-[2-(4-t-butylbenzyloxy)ethoxy]-7-ethoxycarbonylmethylthio-pyrazolo[4,3-d]pyrimidine]",15%,
"CCC=CCCOc1c2ncnc(SCC(=O)OCC)c2nn1-c1ccccc1 [Example 47, 2-Phenyl-3-(3-hexenyloxy)-7-ethoxycarbonylmethylthio-pyrazolo[4,3-d]pyrimidine]",10%,
"CCCCCCCCCCC/C=C\CCCCCOc1c2ncnc(SCC(=O)OCC)c2nn1C [Example 71, 2-Methyl-3-petroselinyloxy-7-ethoxycarbonylmethylthio-pyrazolo[4,3-d]pyrimidine]",64%,
"CCCCCCCCCCCCCCCCOc1c2ncnc(SC(C)(C)C(=O)OCC)c2nn1C [Example 26, 2-Methyl-3-n-hexadecyloxy-7-(1-ethoxycarbonyl-1-methyl-ethylthio)pyrazolo [4,3-d]pyrimidine]",16%,
"C=CCCCCCCCCOc1c2ncnc(SCC(=O)OCC)c2nn1C [Example 45, 2-methyl-3-(9-decenyloxy)-7-ethoxycarbonylmethylthio-pyrazolo[4,3-d]pyrimidine]",22%,
"CCOC(=O)CSc1ncnc2c(OCCOCc3ccc(CC)cc3)n(C)nc12 [Example 37, 2-Methyl-3-[2-(4-ethylbenzyloxy)ethoxy]7-ethoxycarbonylmethylthio-pyrazolo[4,3-d]pyrimidine]",37%,
"CCCCCCCCCCCCCCCCOc1c2ncnc(SCCCCCC)c2nn1C [Example 23, 2-Methyl-3-n-hexadecyloxy-7-n-hexylthiopyrazolo[4,3-d]pyrimidine]",39%,change in vivo at 300 mg/kg [3]: 30%; Degree of hepatomegaly (change rate of the liver weight) [3]: 0%
"CCCCC/C=C\C/C=C\CCCCCCCCOc1c2ncnc(SC(C)C(=O)OCC)c2nn1C (stereo not drawn) [Example 58, 2-Methyl-3-linoleyloxy-7-(1-ethoxycarbonylethylthio)-pyrazolo[4,3-d]pyrimidine]",32%,
"CCOC(=O)CSc1ncnc2c(OCCCC(C)=O)n(C)nc12 [Example 46, 2-Methyl-3-(4-oxo-pentyloxy)-7-ethoxycarbonymethylthio-pyrazolo[4,3-d]pyrimidine]",11%,
"CCCCCCCCCCCCCCC(C)Oc1c2ncnc(SCC(=O)OCC)c2nn1C (stereo not drawn) [Example 43, 2-Methyl-3-(1-methylpentadecyloxy)-7-ethoxycarbonylmethylthio-pyrazolo[4,3-d]pyrimidine]",28%,
"CCCCCCCCCCCCCCCCOc1c2ncnc(SCC(=O)OC)c2nn1C [Example 15, 2-Methyl-3-n-hexadecyloxy-7-methoxycarbonylmethylthio-pyrazolo[4,3-d]pyrimidine]",53%,
"C=CCCCCCCCCCOc1c2ncnc(SCC(=O)OCC)c2nn1C [Example 73, 2-Methyl-3-(10-undecenyloxy)-7-ethoxycarbonylmethylthio-pyrazolo[4,3-d]pyrimidine]",27%,
"CCCCC/C=C\C/C=C\CCCCCCCCOc1c2ncnc(SCC(=O)OC)c2nn1C [Example 54, 2-Methyl-3-linoleyloxy-7-methoxycarbonylmethylthio-pyrazolo[4,3-d]pyrimidine]",79%,
"CCCCC/C=C\C/C=C\CCCCCCCCOc1c2ncnc(SCCCCC(=O)OCC)c2nn1C [Example 60, 2-Methyl-3-linoleyloxy-7-[4-(ethoxycarbonyl)butylthio]-pyrazolo[4,3-d]pyrimidine]",22%,
"CCCCCCCCCCCCCCCCCCCCOc1c2ncnc(SC(C)(C)C(=O)OCC)c2nn1C [Example 29, 2-Methyl-3-n-eicosyloxy-7-(1-ethoxycarbonyl-1-methyl-ethylthio)-pyrazolo[4,3-d]pyrimidine]",16%,
"CCCCCCCCCCCCOc1c2ncnc(SCC(=O)OCC)c2nn1C [Example 2, 2-Methyl-3-n-dodecyloxy-7-ethoxycarbonylmethylthio-pyrazolo[4,3-d]pyrimidine]",36%,
C=CCSc1ncnc2c(OCCCCCCCCCCCCCCCC)n(C)nc12 [Example 22],11%,
"CCCCCCCCCCCCCCCCOc1c2ncnc(SCc3ccccc3)c2nn1C [Example 19, 2-Methyl-3-n-hexadecyloxy-7-benzylthio-pyrazolo[4,3-d]pyrimidine]",42%,change in vivo at 300 mg/kg [3]: 31%; Degree of hepatomegaly (change rate of the liver weight) [3]: +8%
"CCCCCCCCCCCCCCCCOc1c2ncnc(SCC(=O)c3ccccc3)c2nn1C [Example 18, 2-Methyl-3-n-hexadecyloxy-7-benzoylmethylthio-pyrazolo[4,3-d]pyrimidine]",35%,change in vivo at 300 mg/kg [3]: 42%; Degree of hepatomegaly (change rate of the liver weight) [3]: +4%
"CCCCCCCCCCCCCCCOc1c2ncnc(SCC(=O)OCC)c2nn1C [Example 4, 2-Methyl-3-n-pentadecyloxy-7-ethoxycarbonylmethylthio-pyrazolo[4,3-d]pyrimidine]",48%,change in vivo at 300 mg/kg [3]: 20%; Degree of hepatomegaly (change rate of the liver weight) [3]: +2%
"CCOC(=O)CSc1ncnc2c(OCCOCc3ccc(C(C)(C)C)cc3)n(-c3ccccc3)nc12 [Example 48, 2-Phenyl-3-[2-(4-t-butylbenzyloxy)ethyloxy]-7-ethoxycarbonylmethylthio-pyrazolo[4,3-d]pyrimidine]",34%,
"CCCCC/C=C\C/C=C\CCCCCCCCOc1c2ncnc(SCC(=O)OCC)c2nn1C [Example 10, 2-Methyl-3-linoleyloxy-7-ethoxycarbonylmethylthio-pyrazolo[4,3-d]pyrimidine]",76%,mortality at 168 h [2]: 0%; change in vivo at 300 mg/kg [3]: 13%; Degree of hepatomegaly (change rate of the liver weight) [3]: +12%
"CCCCSCCOc1c2ncnc(SCC(=O)OCC)c2nn1-c1ccccc1 [Example 49, 2-Phenyl-3-(3-thia-heptyloxy)-7-ethoxycarbonylmethylthio-pyrazolo[4,3-d]pyrimidine]",14%,
"CCCCCCCC/C=C\CCCCCCCCOc1c2ncnc(SCC(=O)OCC)c2nn1-c1ccccc1 [Example 50, 2-Phenyl-3-oleyloxy-7-ethoxycarbonylmethylthio-pyrazolo[4,3-d]pyrimidine]",35%,
